Results: the supplement of paper PMC9013687

Columns and labels:
Danio rerio embryo [1] = experiment: EC50 Eye-jaw distance_Decrease; settings: exposure time: 4 dpf
Procedure: (§1)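 Zebrafish embryos (UFZ-OBI strain) were exposed from 2 hpf for 48 h (2 dpf) or 96 h (4 dpf) at 28 °C; spontaneous tail coiling was scored at 25 hpf. Morphological features from automated image analysis (FishInspector), heart rate and locomotor response were fitted with drc models. Quantal endpoints were dichotomised at 2.5 SD from controls and fitted with a log-logistic model; heart rate, pigmentation and STC were normalised to the replicate control mean. Betamethasone was tested as betamethasone dipropionate, diflorasone as diflorasone diacetate.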

Danio rerio embryo [2] = experiment: EC10 Pericard size_Increase; higher = less potent; settings: exposure time: 4 dpf
Procedure: as §1

Danio rerio embryo [3] = experiment: EC10 Yolk sac size_Increase; higher = less potent; settings: exposure time: 4 dpf
Procedure: as §1

Danio rerio embryo [4] = experiment: EC10 Eye-jaw distance_Decrease; higher = less potent; settings: exposure time: 4 dpf
Procedure: as §1

Danio rerio embryo [5] = experiment: EC50 Yolk sac size_Increase; settings: exposure time: 4 dpf
Procedure: as §1

Danio rerio embryo [6] = experiment: EC20 Yolk sac size_Increase; higher = less potent; settings: exposure time: 4 dpf
Procedure: as §1

Danio rerio embryo [7] = experiment: EC10 Body length_Decrease; higher = less potent; settings: exposure time: 2 dpf
Procedure: as §1

Danio rerio embryo [8] = experiment: EC10 Bladder size_Decrease; higher = less potent; settings: exposure time: 4 dpf
Procedure: as §1

Danio rerio embryo [9] = experiment: EC50 Bladder size_Decrease; settings: exposure time: 4 dpf
Procedure: as §1

Danio rerio embryo [10] = experiment: spontaneous tail coiling frequency (coils/min/embryo); higher = more spontaneous movement; settings: 25 hpf
Procedure: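 Spontaneous tail coilings of zebrafish embryos exposed from 2 hpf were recorded at 24-25 hpf in 1-min videos and detected by a KNIME workflow from grey-value variance. Betamethasone was tested as the dipropionate, diflorasone as the diacetate.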

Danio rerio embryo [11] = experiment: EC10 Lack of SB; higher = less potent; settings: exposure time: 4 dpf
Procedure: as §1

Danio rerio embryo [12] = experiment: EC20 Any effect; higher = less potent
Procedure: as §1

Danio rerio embryo [13] = settings: exposure time: 4 dpf
Procedure: as §1

Danio rerio embryo [14] = experiment: EC50 Body length_Decrease; settings: exposure time: 2 dpf
Procedure: as §1

Danio rerio embryo [15] = experiment: EC20 Bladder size_Decrease; higher = less potent; settings: exposure time: 4 dpf
Procedure: as §1

Danio rerio embryo [16] = system: Danio rerio embryo
Procedure: as §1

Danio rerio embryo [17] = experiment: EC10 Pigmentation increase; higher = less potent; settings: exposure time: 4 dpf
Procedure: as §1

Danio rerio embryo [18] = experiment: EC20 LMR dark; higher = less potent; settings: exposure time: 4 dpf
Procedure: as §1

Danio rerio embryo [19] = experiment: EC10 LMR dark; higher = less potent; settings: exposure time: 4 dpf
Procedure: as §1

Danio rerio embryo [20] = experiment: EC20 Pigmentation increase; higher = less potent; settings: exposure time: 4 dpf
Procedure: as §1

Danio rerio embryo [21] = experiment: EC10 Any effect; higher = less potent
Procedure: as §1

Danio rerio embryo [22] = experiment: EC20 Pericard size_Increase; higher = less potent; settings: exposure time: 4 dpf
Procedure: as §1

Danio rerio embryo [23] = experiment: EC20 Heart rate; higher = less potent
Procedure: as §1

Danio rerio embryo [24] = experiment: EC20 Eye-jaw distance_Decrease; higher = less potent; settings: exposure time: 4 dpf
Procedure: as §1

Danio rerio embryo [25] = experiment: EC20 STC decrease; higher = less potent; settings: exposure time: 25 h
Procedure: as §1

Danio rerio embryo [26] = experiment: EC10 Heart rate; higher = less potent
Procedure: as §1

Danio rerio embryo [27] = experiment: EC10 STC decrease; higher = less potent; settings: exposure time: 25 h
Procedure: as §1

Danio rerio embryo [28] = experiment: EC50 Pericard size_Increase; settings: exposure time: 4 dpf
Procedure: as §1

Danio rerio embryo [29] = experiment: EC20 Lack of SB; higher = less potent; settings: exposure time: 4 dpf
Procedure: as §1

Danio rerio embryo [30] = settings: exposure time: 4 dpf; remark: listed apart in the source
Procedure: as §1

Danio rerio embryo [31] = experiment: EC20 Body length_Decrease; higher = less potent; settings: exposure time: 2 dpf
Procedure: as §1

CNCCC=C1c2ccccc2CCc2ccccc21 [Nortriptyline]
Settings	EC10 Bladder size Decrease [µM]	EC10 Body length Decrease [µM]	EC10 Eye-jaw distance Decrease [µM]	EC10 LMR dark [µM]	EC10 Lack of SB [µM]	EC10 Pericard size Increase [µM]	EC10 Pigmentation increase [µM]	EC10 STC decrease [µM]	EC10 Yolk sac size Increase [µM]	EC20 Bladder size Decrease [µM]	EC20 Body length Decrease [µM]	EC20 Eye-jaw distance Decrease [µM]	EC20 LMR dark [µM]	EC20 Lack of SB [µM]	EC20 Pericard size Increase [µM]	EC20 Pigmentation increase [µM]	EC20 STC decrease [µM]	EC20 Yolk sac size Increase [µM]	EC50 Bladder size Decrease [µM]	EC50 Body length Decrease [µM]	EC50 Eye-jaw distance Decrease [µM]	EC50 LMR dark [µM]	EC50 Lack of SB [µM]	EC50 Pericard size Increase [µM]	EC50 Yolk sac size Increase [µM]
Danio rerio embryo [1]	–	–	–	–	–	–	–	–	–	–	–	–	–	–	–	–	–	–	–	–	21.5	–	–	–	–
Danio rerio embryo [2]	–	–	–	–	–	16.5	–	–	–	–	–	–	–	–	–	–	–	–	–	–	–	–	–	–	–
Danio rerio embryo [3]	–	–	–	–	–	–	–	–	14.5	–	–	–	–	–	–	–	–	–	–	–	–	–	–	–	–
Danio rerio embryo [4]	–	–	16.6	–	–	–	–	–	–	–	–	–	–	–	–	–	–	–	–	–	–	–	–	–	–
Danio rerio embryo [5]	–	–	–	–	–	–	–	–	–	–	–	–	–	–	–	–	–	–	–	–	–	–	–	–	29.2
Danio rerio embryo [6]	–	–	–	–	–	–	–	–	–	–	–	–	–	–	–	–	–	18.7	–	–	–	–	–	–	–
Danio rerio embryo [7]	–	34	–	–	–	–	–	–	–	–	–	–	–	–	–	–	–	–	–	–	–	–	–	–	–
Danio rerio embryo [8]	4.59	–	–	–	–	–	–	–	–	–	–	–	–	–	–	–	–	–	–	–	–	–	–	–	–
Danio rerio embryo [9]	–	–	–	–	–	–	–	–	–	–	–	–	–	–	–	–	–	–	5.07	–	–	–	–	–	–
Danio rerio embryo [11]	–	–	–	–	4.59	–	–	–	–	–	–	–	–	–	–	–	–	–	–	–	–	–	–	–	–
Danio rerio embryo [13]	–	–	–	–	–	–	–	–	–	–	–	–	–	–	–	–	–	–	–	–	–	–	5.07	–	–
Danio rerio embryo [14]	–	–	–	–	–	–	–	–	–	–	–	–	–	–	–	–	–	–	–	40.6	–	–	–	–	–
Danio rerio embryo [15]	–	–	–	–	–	–	–	–	–	4.76	–	–	–	–	–	–	–	–	–	–	–	–	–	–	–
Danio rerio embryo [17]	–	–	–	–	–	–	0.889	–	–	–	–	–	–	–	–	–	–	–	–	–	–	–	–	–	–
Danio rerio embryo [18]	–	–	–	–	–	–	–	–	–	–	–	–	1.96	–	–	–	–	–	–	–	–	–	–	–	–
Danio rerio embryo [19]	–	–	–	0.745	–	–	–	–	–	–	–	–	–	–	–	–	–	–	–	–	–	–	–	–	–
Danio rerio embryo [20]	–	–	–	–	–	–	–	–	–	–	–	–	–	–	–	1.83	–	–	–	–	–	–	–	–	–
Danio rerio embryo [22]	–	–	–	–	–	–	–	–	–	–	–	–	–	–	17.8	–	–	–	–	–	–	–	–	–	–
Danio rerio embryo [24]	–	–	–	–	–	–	–	–	–	–	–	18.3	–	–	–	–	–	–	–	–	–	–	–	–	–
Danio rerio embryo [25]	–	–	–	–	–	–	–	–	–	–	–	–	–	–	–	–	8.4	–	–	–	–	–	–	–	–
Danio rerio embryo [27]	–	–	–	–	–	–	–	3.44	–	–	–	–	–	–	–	–	–	–	–	–	–	–	–	–	–
Danio rerio embryo [28]	–	–	–	–	–	–	–	–	–	–	–	–	–	–	–	–	–	–	–	–	–	–	–	20.4	–
Danio rerio embryo [29]	–	–	–	–	–	–	–	–	–	–	–	–	–	4.76	–	–	–	–	–	–	–	–	–	–	–
Danio rerio embryo [30]	–	–	–	–	–	–	–	–	–	–	–	–	–	–	–	–	–	–	–	–	–	10.3	–	–	–
Danio rerio embryo [31]	–	–	–	–	–	–	–	–	–	–	36.3	–	–	–	–	–	–	–	–	–	–	–	–	–	–

Settings	EC10 Any effect [µM]	EC10 Heart rate [µM]	EC20 Any effect [µM]	EC20 Heart rate [µM]	EC50 Any effect [µM]	EC50 STC decrease [µM]	spontaneous tail coiling frequency
Danio rerio embryo [10], 0.3 µM	–	–	–	–	–	–	2.44
Danio rerio embryo [10], 3.3 µM	–	–	–	–	–	–	2.01
Danio rerio embryo [10], 13.2 µM	–	–	–	–	–	–	2.12
Danio rerio embryo [10], 16.9 µM	–	–	–	–	–	–	1.32
Danio rerio embryo [10], 19.8 µM	–	–	–	–	–	–	2.06
Danio rerio embryo [10], 29.6 µM	–	–	–	–	–	–	1.39
Danio rerio embryo [10], 33.9 µM	–	–	–	–	–	–	1.27
Danio rerio embryo [10], 44.5 µM	–	–	–	–	–	–	1.1
Danio rerio embryo [10], 66.7 µM	–	–	–	–	–	–	1.79
Danio rerio embryo [10], 67.8 µM	–	–	–	–	–	–	1.17
Danio rerio embryo [10], 100 µM	–	–	–	–	–	–	0.43
Danio rerio embryo [10], 100.1 µM	–	–	–	–	–	–	1.13
Danio rerio embryo [10], 133.4 µM	–	–	–	–	–	–	0.28
Danio rerio embryo [10], 135.6 µM	–	–	–	–	–	–	0
Danio rerio embryo [12], exposure time: 2 dpf	–	–	36.4	–	–	–	–
Danio rerio embryo [12], exposure time: 4 dpf	–	–	19.1	–	–	–	–
Danio rerio embryo [16], exposure time: 2 dpf	–	–	–	–	50.5	–	–
Danio rerio embryo [16], exposure time: 4 dpf	–	–	–	–	22.1	–	–
Danio rerio embryo [16], exposure time: 25 h	–	–	–	–	–	39	–
Danio rerio embryo [21], exposure time: 2 dpf	30	–	–	–	–	–	–
Danio rerio embryo [21], exposure time: 4 dpf	17.5	–	–	–	–	–	–
Danio rerio embryo [23], exposure time: 2 dpf	–	–	–	79.7	–	–	–
Danio rerio embryo [23], exposure time: 4 dpf	–	–	–	19.3	–	–	–
Danio rerio embryo [26], exposure time: 2 dpf	–	39.8	–	–	–	–	–
Danio rerio embryo [26], exposure time: 4 dpf	–	9.66	–	–	–	–	–
